Consider one compound from patent US9040080B2, “Processing of heat-sensitive active agents” (SOUTHWEST RESEARCH INSTITUTE, priority 2008, dated 2015).

The nature of data set [1]: HPLC analysis of thermal degradation of brinzolamide in extruded fibers. It is filed as physicochemical. To be noted: PLGA microspheres (40%) extruded with poly(caprolactone) (60%). From the text:
The active ingredient brinzolamide was microencapsulated in two poly(lactic acid-co-glycolic acid) (PLGA) copolymers, one having a molar ratio of 75/25 (PLGA7525) and one having a molar ratio of 85/15 (PLGA 8515) as discussed further below. The theoretical amount of active agent was 40% by weight in each microencapsulation formulation. The two microsphere formulations were extruded with a lower melting point polymer, poly(caprolactone) (CAPA686), wherein the microspheres were present at 40% by weight and the poly(caprolactone) was present at 60% by weight, forming fibers incorporating the microcapsules therein.

The nature of data set [2]: Drug degradation on direct melt processing (extrusion) with PLGA. Type of data set: physicochemical. To be noted: directly melt processed by extrusion with poly(lactic acid-co glycolic acid) at 75:25 and 85:15 molar ratios, 140° C.-160° C. As to the method:
For example, about 5% drug degradation was found when brinzolamide, having a melting point in the range of 130-131° C. was directly melt processed by extrusion with poly(lactic acid-co glycolic acid) at 75:25 and 85:15 molar ratios. Melt processing temperatures of the poly(lactic-co glycolic acid) were in the range of 140° C.-160° C.

In the case of `CCN[C@H]1CN(CCCOC)S(=O)(=O)c2sc(S(N)(=O)=O)cc21` [brinzolamide, (R)-(+)-4-Ethylamino-2-(3-methoxypropyl)-3,4-dihydro-2H-thieno[3,2-e]-1,2-thiazine-6-sulfonamide-1,1-dioxide], in data set [1], the “thermal degradation of brinzolamide in the fibers” value was “absence of thermal degradation”. Besides, the drug degradation result in data set [2] was “about 5%”.
